Measured values as given in patent publication US20240083904A1, “ANTAGONISTS OF THE ADENOSINE A2A RECEPTOR” (AdoRx Therapeutics Limited, priority 2020, published 2024).
pIC50, pKi: −log10 of the molar value.

Assays:
[1] = test system: human PBMCs; experiment: CD3/CD28 stimulated IL-2 release NECA reversal assay in human PBMCs; assay type: cell-based; settings: PBMC, 1 uM NECA, 24 hours
Method: Blood is drawn from healthy volunteers using sodium citrate as the anticoagulant (0.3% final concentration). After centrifugation of the blood over Histopaque-1077, PBMCs are collected from the Histopaque/plasma interface and washed twice in PBS (300 g for 10 mins at room temp). Cells are plated at 50,000 cells/well in 150 μl RPMI/10% FCS in 96-well cell culture plates that have been precoated with 1 ug/ml CD3 antibody. 50 μl diluted compound mix is added to the cells, to obtain final concentrations of 1 μg/ml CD28 antibody, 1 uM NECA and 0.003-10 μM adenosine receptor antagonist. Assay plates are incubated for 24 hours at 37° C. in a humidified incubator. Culture supernatant is tested for IL-2 levels using the human IL-2 Tissue Culture Kit (Meso Scale Discovery). Data for dose-response curves is calculated as % inhibition with 100% inhibition defined from no agonist control wells (+CD3/28-NECA)

[2] = target: human Adenosine A3 receptor (Homo sapiens (Human), UniProt P0DMS8); experiment: Adenosine receptor TR-FRET binding assay (A3); settings: CHO cell membranes, 100 nM CA200645, Ki from IC50 by Cheng and Prusoff
Method: (§1) All FRET binding experiments were conducted at room temperature in white 384-well plates, in assay binding buffer containing 1× LabMed (Cisbio, France), 100 μg/mL saponin, 1% DMSO and 0.02% pluronic acid. Binding of the fluorescently labelled Adenosine receptor antagonist XAC (CA200645, FRET acceptor) to terbium-labelled A1, A2a, A2b and A3 adenosine receptors (FRET donors) was detected by time-resolved FRET due to the close proximity of the donor and acceptor in a binding event. To investigate the ability of unlabelled test compounds to bind to Adenosine A1, A2a, A2b and A3 receptors, dose response curves were constructed that determined the ability of a range of concentrations to inhibit the binding of 30 nM CA200645 to the A2b receptor and 100 nM CA200645 to the A1, A2a, and A3 receptor.
(§2) Serial dilution (1:3 dilutions) of test compounds in neat DMSO and transfer of a 400 nL sample of test compound into the assay plate was carried out using the Mosquito (TTP Labtech, UK). The compound samples were incubated for 2 hours at room temperature with a fixed concentration of CA200645 defined for each receptor (see above) and CHO cell membranes containing the human Adenosine A1 (0.5 μg/well), A2a (0.3 μg/well), A2b (1 μg/well) or A3 (1 μg/well) receptor in 40 μL of assay buffer. Total and non-specific binding of CA200645 was determined in the absence and presence of 10 μM XAC, respectively. Following 2 hours incubation, the level of CA200645 binding was detected on a Pherastar FSX (BMG Labtech, Germany) using standard TR-FRET settings. The terbium donor was excited with three laser flashes at a wavelength of 337 nm, and donor and acceptor emission was detected at 620 nm and 665 nm wavelengths, respectively. FRET ratios were obtained by multiplying the acceptor/donor ratio value by 10,000. Specific binding was determined by subtracting the non-specific binding FRET ratio from the total binding FRET ratio. Compound IC50 curves were analysed using GraphPad Prism 7.0 (GraphPad, USA) and Ki affinity values were determined from the obtained IC50 values using the method of Cheng and Prusoff.

[3] = target: human Adenosine A2a receptor (Homo sapiens (Human), UniProt P29274); experiment: Adenosine receptor TR-FRET binding assay (A2a); settings: CHO cell membranes, 100 nM CA200645, Ki from IC50 by Cheng and Prusoff
Method: as §1, §2

[4] = target: human Adenosine A1 receptor (Homo sapiens (Human), UniProt P30542); experiment: Adenosine receptor TR-FRET binding assay (A1); settings: CHO cell membranes, 100 nM CA200645, Ki from IC50 by Cheng and Prusoff
Method: as §1, §2

[5] = test system: pCREB in CD8+ T cells in human whole blood; experiment: Measurement of pCREB in CD8+ T cells in human whole blood; assay type: cell-based; settings: T-cell, 3 μM NECA, rolipram, FACS
Method: Heparinised human whole blood was pre-incubated at 37° C. with serial dilutions of A2a antagonists for 20 min. and the phosphodiesterase inhibitor rolipram to amplify the pCREB response. The adenosine receptor agonist NECA is then added at a final concentration of 3 μM and following a 60 min incubation the blood is fixed and red blood cells lysed. White blood cells are isolated, permeabilized and stained with directly conjugated fluorescent antibodies to phospho-CREB (Alexa Fluor 488) and CD8 (Alexa Fluor 647) and the level of phospho-CREB in CD8+ T cells is measured by FACS using a BD Accuri C6 Flow Cytometer.

[6] = target: human Adenosine A2b receptor (Homo sapiens (Human), UniProt P29275); experiment: Adenosine receptor TR-FRET binding assay (A2b); settings: CHO cell membranes, 30 nM CA200645, Ki from IC50 by Cheng and Prusoff
Method: as §1, §2

Sequence of human Adenosine A3 receptor (P0DMS8 whole entry): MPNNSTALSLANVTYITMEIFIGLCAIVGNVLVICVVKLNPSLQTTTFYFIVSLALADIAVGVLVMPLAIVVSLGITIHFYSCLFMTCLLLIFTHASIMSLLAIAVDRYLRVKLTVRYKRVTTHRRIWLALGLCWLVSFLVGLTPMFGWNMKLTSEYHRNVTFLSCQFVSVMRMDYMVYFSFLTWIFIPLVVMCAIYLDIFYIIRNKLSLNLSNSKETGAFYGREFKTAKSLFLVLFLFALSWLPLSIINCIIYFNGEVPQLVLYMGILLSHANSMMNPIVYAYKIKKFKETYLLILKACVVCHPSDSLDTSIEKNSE
Sequence of human Adenosine A2a receptor (P29274 whole entry): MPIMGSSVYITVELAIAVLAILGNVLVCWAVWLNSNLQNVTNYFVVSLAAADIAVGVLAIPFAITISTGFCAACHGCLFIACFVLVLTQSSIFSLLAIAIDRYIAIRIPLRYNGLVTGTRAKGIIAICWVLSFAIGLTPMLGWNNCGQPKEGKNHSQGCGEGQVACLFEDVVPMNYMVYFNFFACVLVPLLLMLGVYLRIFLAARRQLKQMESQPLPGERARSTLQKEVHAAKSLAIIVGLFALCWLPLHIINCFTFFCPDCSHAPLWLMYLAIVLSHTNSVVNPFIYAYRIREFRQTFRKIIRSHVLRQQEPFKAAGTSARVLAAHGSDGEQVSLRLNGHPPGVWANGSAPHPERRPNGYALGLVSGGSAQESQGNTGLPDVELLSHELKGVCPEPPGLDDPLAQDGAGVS
Sequence of human Adenosine A2b receptor (P29275 whole entry): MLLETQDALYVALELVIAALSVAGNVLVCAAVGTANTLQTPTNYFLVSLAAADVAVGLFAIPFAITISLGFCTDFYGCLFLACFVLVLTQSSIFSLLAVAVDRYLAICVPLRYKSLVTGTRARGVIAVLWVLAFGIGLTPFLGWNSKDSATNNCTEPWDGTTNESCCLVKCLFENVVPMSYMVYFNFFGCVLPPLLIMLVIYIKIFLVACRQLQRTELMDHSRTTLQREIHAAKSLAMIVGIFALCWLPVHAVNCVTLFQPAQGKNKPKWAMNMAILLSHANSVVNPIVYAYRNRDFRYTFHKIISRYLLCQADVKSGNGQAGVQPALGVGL
Sequence of human Adenosine A1 receptor (P30542 whole entry): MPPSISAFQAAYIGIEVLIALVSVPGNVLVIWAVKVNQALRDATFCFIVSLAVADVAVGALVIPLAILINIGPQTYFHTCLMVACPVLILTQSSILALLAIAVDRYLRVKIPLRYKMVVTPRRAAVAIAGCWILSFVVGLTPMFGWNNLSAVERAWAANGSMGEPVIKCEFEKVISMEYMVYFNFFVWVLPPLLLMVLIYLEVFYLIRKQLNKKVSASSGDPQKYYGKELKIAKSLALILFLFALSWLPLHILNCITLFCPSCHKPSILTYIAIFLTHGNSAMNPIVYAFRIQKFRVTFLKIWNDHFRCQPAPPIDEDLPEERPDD

pKi [2] | pKi [3] | pKi [4] | pIC50 [5] | pKi [6] | Compound | pIC50 [1]
< 6.00 | 9.47 | 6.49 | 6.30 | 7.10 | Cc1cc(-c2c(-c3cccc(C#N)c3)nc3ccc(C(=O)N[C@H](C)C(C)(C)O)nn23)cc(C(F)(F)F)n1 [Example 2.7, 2-(3-Cyanophenyl)-N-[(1R)-2-hydroxy-1,2-dimethyl-propyl]-3-[2-methyl-6-(trifluoromethyl)-4-pyridyl]imidazo[1,2-b]pyridazine-6-carboxamide] | 7.98
< 6.00 | 9.70 | 7.02 | 6.77 | 7.70 | Cc1cc(-c2c(-c3cccc(C#N)c3)nc3ccc(C(=O)N[C@@H](C)C(C)(C)O)nn23)cc(Cl)n1 [Example 2.9, 3-(2-Chloro-6-methyl-4-pyridyl)-2-(3-cyanophenyl)-N-[(1S)-2-hydroxy-1,2-dimethyl-propyl]imidazo[1,2-b]pyridazine-6-carboxamide] | 8.28
< 6.00 | 8.64 | 6.54 | 5.69 | 6.81 | COc1cc(-c2c(-c3cccc(C#N)c3)nc3ccc(C(=O)NCC(C)(C)O)nn23)cc(C)n1 [Example 2.4, 2-(3-Cyanophenyl)-N-(2-hydroxy-2-methyl-propyl)-3-(2-methoxy-6-methyl-4-pyridyl)imidazo[1,2-b]pyridazine-6-carboxamide] | 7.87
< 6.00 | 9.77 | 7.52 | 7.24 | 7.74 | Cc1cc(-c2c(-c3cccc(C#N)c3)nc3ccc(C(=O)N[C@@H](C)C(C)(C)O)nn23)cc(C(F)(F)F)n1 [Example 2.6, 2-(3-Cyanophenyl)-N-[(1S)-2-hydroxy-1,2-dimethyl-propyl]-3-[2-methyl-6-(trifluoromethyl)-4-pyridyl]imidazo[1,2-b]pyridazine-6-carboxamide] | 9.22
< 6.00 | 9.34 | 7.02 | 6.55 | 7.74 | Cc1cc(-c2c(-c3cccc(C#N)c3)nc3ccc(C(=O)NCC(C)(C)O)nn23)cc(C(F)(F)F)n1 [Example 2.3, 2-(3-Cyanophenyl)-N-(2-hydroxy-2-methyl-propyl)-3-[2-methyl-6-(trifluoromethyl)-4-pyridyl]imidazo[1,2-b]pyridazine-6-carboxamide] | 8.14
< 6.00 | 9.10 | 6.18 | 6.91 | 6.67 | Cc1cc(-c2c(-c3cccc(C#N)c3)nc3ccc(C(=O)NCC(C)(C)O)nn23)cc(C)n1 [Example 2.1, 2-(3-Cyanophenyl)-3-(2,6-dimethyl-4-pyridyl)-N-(2-hydroxy-2-methyl-propyl)imidazo[1,2-b]pyridazine-6-carboxamide] | 7.86
< 6.00 | 9.72 | 6.61 | 6.33 | 6.55 | COc1cc(-c2c(-c3cccc(C#N)c3)nc3ccc(C(=O)N[C@@H](C)C(C)(C)O)nn23)cc(C)n1 [Example 2.8, 2-(3-Cyanophenyl)-N-[(1S)-2-hydroxy-1,2-dimethyl-propyl]-3-(2-methoxy-6-methyl-4-pyridyl)imidazo[1,2-b]pyridazine-6-carboxamide] | 8.34
< 6.00 | 9.30 | 6.44 | 6.30 | 7.57 | Cc1cc(-c2c(-c3cccc(C#N)c3)nc3ccc(C(=O)NCC(C)(C)O)nn23)cc(Cl)n1 [Example 2.2, 3-(2-Chloro-6-methyl-4-pyridyl)-2-(3-cyanophenyl)-N-(2-hydroxy-2-methyl-propyl)imidazo[1,2-b]pyridazine-6-carboxamide] | 7.41
< 6.00 | 9.49 | 7.11 | 6.98 | 7.47 | Cc1cc(-c2c(-c3cccc(C#N)c3)nc3ccc(C(=O)N[C@@H](C)C(C)(C)O)nn23)cc(C(F)F)n1 [Example 2.5, 2-(3-Cyanophenyl)-3-[2-(difluoromethyl)-6-methyl-4-pyridyl]-N-[(1S)-2-hydroxy-1,2-dimethyl-propyl]imidazo[1,2-b]pyridazine-6-carboxamide] | 8.96

Further lines, the molecule ahead of its results:

Compound | pKi [2] | pKi [3] | pKi [4] | pIC50 [5] | pKi [6] | pIC50 [1]
Cc1cc(-c2c(-c3cccc(C#N)c3)nc3ccc(C(=O)N[C@@H](C)C(C)(C)O)nn23)cc(C)n1 [Example 3, 2-(3-Cyanophenyl)-3-(2,6-dimethyl-4-pyridyl)-N-[(1S)-2-hydroxy-1,2-dimethyl-propyl]imidazo[1,2-b]pyridazine-6-carboxamide] | < 6.00 | 9.80 | 7.15 | 7.21 | 7.51 | 8.77
CC(=O)c1cc(-c2c(-c3cccc(C#N)c3)nc3ccc(C(=O)NCC(C)(C)O)nn23)cc(C)n1 [Example 2, 3-(2-Acetyl-6-methyl-4-pyridyl)-2-(3-cyanophenyl)-N-(2-hydroxy-2-methyl-propyl)imidazo[1,2-b]pyridazine-6-carboxamide] | < 6.00 | 8.41 | 5.74 |  | 5.80 | 
CC(C)(O)CNC(=O)c1ccc2nc(-c3cccc(C#N)c3)c(Br)n2n1 [Example 1, 3-Bromo-2-(3-cyanophenyl)-N-(2-hydroxy-2-methyl-propyl)imidazo[1,2-b]pyridazine-6-carboxamide] | < 6.00 | 7.96 | 5.40 |  | 6.30 | 
Cc1cc(-c2c(-c3cccc(C#N)c3)nc3ccc(C(=O)N[C@@H](C)C(C)(C)O)nn23)cc(CO)n1 [Example 6, 2-(3-Cyanophenyl)-N-[(1S)-2-hydroxy-1,2-dimethyl-propyl]-3-[2-(hydroxymethyl)-6-methyl-4-pyridyl]imidazo[1,2-b]pyridazine-6-carboxamide] | < 6.00 | 9.17 | 6.92 |  | 7.31 | 
